# In ChEMBL document CHEMBL5634147, “Multi-targeted anti-Alzheimer's agents: Synthesis, biological evaluation, and molecular modeling study of some pyrazolopyridine hybrids” (Eur J Med Chem, 2023):
# Calls of active or inactive are those of the source. No cut-off for these calls is given here. Non-standard residues stand in square brackets, D forms with d. Residues, ends and D or L forms follow the SMILES beside them. *: point of attachment. Myristoyl = CCCCCCCCCCCCCC(=O)*; pS = N[C@@H](COP(=O)(O)O)C(=O)O
# Legend:
# [1] = target: T1, Amyloid-beta precursor protein (Homo sapiens, UniProt P05067); experiment: Inhibition of self mediated Amyloid beta (1 to 42) (unknown origin) aggregation measured every 5 mins by ThT fluorescence based assay
# [2] = target: T1, Amyloid-beta precursor protein; experiment: Inhibition of self-mediated Amyloid beta (1 to 42) (unknown origin) aggregation at 10 uM measured every 5 mins by ThT fluorescence based assay relative to control
# [3] = target: Glycogen synthase kinase-3 beta (Homo sapiens, UniProt P49841); experiment: Inhibition of human GSK3beta by luminescent microplate reader method
# [4] = Metal chelating activity assessed as Cu2+-compound complex formation by measuring hyperchromic shift in presence of CuSO4 by UV-Vis spectroscopy
# [5] = target: T2, Microtubule-associated protein tau (Homo sapiens, UniProt P10636); experiment: Inhibition of human tau protein aggregation at 10 uM incubated for 1.5 hrs by TMB substrate based ELISA relative to control
# Cholinesterase = Cholinesterase (Homo sapiens, UniProt P06276); experiment: Inhibition of human BuChE measured after 15 to 20 mins by DTNB reagent based Ellman's method
# [6] = Metal chelating activity assessed as Zn2+-compound complex formation by measuring hyperchromic shift in presence of ZnSO4 by UV-Vis spectroscopy
# [7] = target: T2, Microtubule-associated protein tau; experiment: Inhibition of human tau protein aggregation incubated for 1.5 hrs by TMB substrate based ELISA
# Acetylcholinesterase = Acetylcholinesterase (Homo sapiens, UniProt P22303); experiment: Inhibition of human AChE using acetylthiocholine iodide as substrate measured after 15 to 20 mins by DTNB reagent based Ellman's method
# [8] = Cytotoxicity against human WI-38 cells assessed as cell viability upto 3.125 uM incubated for 72 hrs by MTT assay relative to control; assay type: toxicity, cell-based; details: read-out: Activity
# human AChE = experiment: Safety index, ratio of IC50 for cytotoxicity against human WI-38 cells to IC50 for human AChE; assay type: toxicity, cell-based; details: read-out: Ratio IC50
# [9] = Metal chelating activity assessed as Fe2+-compound complex formation by measuring hyperchromic shift in presence of FeSO4 by UV-Vis spectroscopy
# [10] = Cytotoxicity against human WI-38 cells assessed as inhibition of cell growth incubated for 72 hrs by MTT assay; assay type: toxicity, cell-based
# [11] = Metal chelating activity assessed as Zn2+-compound complex formation by measuring hypochromic shift in presence of ZnSO4 by UV-Vis spectroscopy
# [12] = Metal chelating activity assessed as Cu2+-compound complex formation by measuring hypochromic shift in presence of CuSO4 by UV-Vis spectroscopy
# T1 sequence (P05067 whole entry): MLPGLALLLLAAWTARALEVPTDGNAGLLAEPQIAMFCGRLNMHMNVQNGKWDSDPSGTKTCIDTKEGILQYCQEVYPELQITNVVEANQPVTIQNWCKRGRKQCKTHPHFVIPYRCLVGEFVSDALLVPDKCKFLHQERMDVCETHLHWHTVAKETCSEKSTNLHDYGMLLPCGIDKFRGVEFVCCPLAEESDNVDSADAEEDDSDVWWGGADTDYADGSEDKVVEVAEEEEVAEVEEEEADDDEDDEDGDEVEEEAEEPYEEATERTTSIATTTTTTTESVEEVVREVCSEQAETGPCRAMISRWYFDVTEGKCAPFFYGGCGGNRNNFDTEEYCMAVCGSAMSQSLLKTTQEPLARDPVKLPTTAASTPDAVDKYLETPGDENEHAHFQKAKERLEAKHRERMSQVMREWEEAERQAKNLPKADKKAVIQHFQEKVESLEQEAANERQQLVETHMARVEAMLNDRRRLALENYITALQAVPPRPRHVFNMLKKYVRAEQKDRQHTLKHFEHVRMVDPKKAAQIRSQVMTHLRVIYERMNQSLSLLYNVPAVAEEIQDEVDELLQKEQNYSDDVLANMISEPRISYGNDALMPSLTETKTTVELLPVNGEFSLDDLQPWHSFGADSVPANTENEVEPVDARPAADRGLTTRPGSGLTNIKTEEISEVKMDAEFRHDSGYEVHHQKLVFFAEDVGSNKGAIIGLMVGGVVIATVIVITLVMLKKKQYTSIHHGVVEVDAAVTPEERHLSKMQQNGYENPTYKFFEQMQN
# Sequence of Acetylcholinesterase (P22303 whole entry): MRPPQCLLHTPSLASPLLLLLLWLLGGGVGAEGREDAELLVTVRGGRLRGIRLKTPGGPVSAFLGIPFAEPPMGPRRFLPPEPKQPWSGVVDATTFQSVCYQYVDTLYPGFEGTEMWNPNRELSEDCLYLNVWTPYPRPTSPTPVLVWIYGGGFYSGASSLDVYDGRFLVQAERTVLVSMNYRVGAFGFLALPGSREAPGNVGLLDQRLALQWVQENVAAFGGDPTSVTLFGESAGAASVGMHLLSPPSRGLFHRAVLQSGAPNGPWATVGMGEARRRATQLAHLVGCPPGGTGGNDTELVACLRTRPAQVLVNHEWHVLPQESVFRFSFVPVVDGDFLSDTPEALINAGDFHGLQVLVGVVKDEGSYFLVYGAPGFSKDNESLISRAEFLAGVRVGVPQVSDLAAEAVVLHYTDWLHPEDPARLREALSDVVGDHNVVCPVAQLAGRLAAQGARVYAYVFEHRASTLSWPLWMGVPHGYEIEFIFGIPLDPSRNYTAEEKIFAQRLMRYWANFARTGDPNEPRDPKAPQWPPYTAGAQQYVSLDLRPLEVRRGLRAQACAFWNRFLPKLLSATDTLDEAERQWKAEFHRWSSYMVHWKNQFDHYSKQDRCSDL
# Sequence of Glycogen synthase kinase-3 beta (P49841 whole entry): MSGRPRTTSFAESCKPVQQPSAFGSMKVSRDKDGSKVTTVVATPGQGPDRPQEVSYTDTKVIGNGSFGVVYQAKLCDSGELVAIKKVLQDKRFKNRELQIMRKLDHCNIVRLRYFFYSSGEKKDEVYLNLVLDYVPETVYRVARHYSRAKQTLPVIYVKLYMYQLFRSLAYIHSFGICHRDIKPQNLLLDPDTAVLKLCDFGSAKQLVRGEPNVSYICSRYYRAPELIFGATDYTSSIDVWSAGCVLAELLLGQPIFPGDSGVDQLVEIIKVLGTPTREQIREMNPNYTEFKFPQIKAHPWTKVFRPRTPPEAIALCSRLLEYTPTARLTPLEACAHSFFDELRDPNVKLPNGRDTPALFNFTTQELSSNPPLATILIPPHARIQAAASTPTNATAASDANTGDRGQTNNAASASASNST
# T2 sequence (P10636 whole entry): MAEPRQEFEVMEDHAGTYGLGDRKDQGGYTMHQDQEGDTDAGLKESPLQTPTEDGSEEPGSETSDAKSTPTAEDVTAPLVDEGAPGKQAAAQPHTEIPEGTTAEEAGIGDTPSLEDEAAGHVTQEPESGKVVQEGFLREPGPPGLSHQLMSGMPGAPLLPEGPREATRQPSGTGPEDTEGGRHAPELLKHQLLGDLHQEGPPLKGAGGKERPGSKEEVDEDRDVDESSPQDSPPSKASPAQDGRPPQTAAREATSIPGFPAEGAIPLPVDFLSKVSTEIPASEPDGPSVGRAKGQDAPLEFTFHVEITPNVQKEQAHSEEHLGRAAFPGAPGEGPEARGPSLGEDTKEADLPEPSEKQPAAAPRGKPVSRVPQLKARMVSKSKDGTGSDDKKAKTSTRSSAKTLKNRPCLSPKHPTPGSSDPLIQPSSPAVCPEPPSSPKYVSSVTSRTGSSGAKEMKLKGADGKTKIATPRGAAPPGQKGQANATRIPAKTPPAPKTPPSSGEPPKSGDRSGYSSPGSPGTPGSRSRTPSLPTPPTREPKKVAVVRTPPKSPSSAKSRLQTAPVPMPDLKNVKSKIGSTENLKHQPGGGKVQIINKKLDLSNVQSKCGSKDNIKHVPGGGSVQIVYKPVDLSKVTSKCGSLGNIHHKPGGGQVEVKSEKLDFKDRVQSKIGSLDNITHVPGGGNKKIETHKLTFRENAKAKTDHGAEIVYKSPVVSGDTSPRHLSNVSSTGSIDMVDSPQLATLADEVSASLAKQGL
# Sequence of Cholinesterase (P06276 whole entry): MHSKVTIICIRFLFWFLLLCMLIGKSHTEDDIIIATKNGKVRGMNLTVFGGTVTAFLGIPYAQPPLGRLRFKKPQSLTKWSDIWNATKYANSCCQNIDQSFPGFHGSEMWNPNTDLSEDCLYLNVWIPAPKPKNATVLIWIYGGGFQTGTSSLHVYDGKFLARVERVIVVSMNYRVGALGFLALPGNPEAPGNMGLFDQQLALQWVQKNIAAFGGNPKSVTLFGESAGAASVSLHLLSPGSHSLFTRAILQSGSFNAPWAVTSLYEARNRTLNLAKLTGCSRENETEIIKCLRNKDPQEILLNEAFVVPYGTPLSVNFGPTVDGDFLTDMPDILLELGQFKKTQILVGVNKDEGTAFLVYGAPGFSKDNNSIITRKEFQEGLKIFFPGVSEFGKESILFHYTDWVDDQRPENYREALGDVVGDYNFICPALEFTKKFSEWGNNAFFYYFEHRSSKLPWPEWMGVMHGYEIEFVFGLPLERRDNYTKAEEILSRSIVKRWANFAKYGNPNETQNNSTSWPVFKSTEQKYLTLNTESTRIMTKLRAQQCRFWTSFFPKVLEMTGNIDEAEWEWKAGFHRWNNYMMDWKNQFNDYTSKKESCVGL
smiles,measurement,setting,value
Nc1n[nH]c2nc(-c3ccc(Br)cc3)cc(-c3ccc(Br)cc3)c12,IC50,[1],460 nM
same,inhibition,[2],79%
same,IC50,[3],210 nM
same,Activity,[4],Active
same,inhibition,[5],66%
same,IC50,Cholinesterase,170 nM
same,Activity,[6],Active
same,IC50,[7],11.6 µM
same,IC50,Acetylcholinesterase,170 nM
same,"viability at 72 h, 3.125 µM",[8],100%
same,selectivity ratio,human AChE,343
same,Activity,[9],Active
same,IC50 at 72 h,[10],58.3 µM
COc1ccc(-c2cc(-c3ccc(Br)cc3)nc3[nH]nc(N)c23)cc1,IC50,Acetylcholinesterase,350 nM
COc1cc(-c2cc(-c3ccc(Br)cc3)nc3[nH]nc(N)c23)cc(OC)c1OC,IC50,Acetylcholinesterase,630 nM
COc1ccc(-c2cc(-c3ccc(OC)c(OC)c3)c3c(N)n[nH]c3n2)cc1,IC50,Acetylcholinesterase,810 nM
COc1cc(-c2cc(-c3ccccc3)nc3[nH]nc(N)c23)cc(OC)c1OC,IC50,Acetylcholinesterase,1890 nM
Nc1n[nH]c2nc(-c3ccccc3)cc(-c3ccc(Br)cc3)c12,IC50,Acetylcholinesterase,2240 nM
COc1ccc(-c2cc(-c3ccccc3)nc3[nH]nc(N)c23)cc1OC,IC50,Acetylcholinesterase,9630 nM
COc1ccc(-c2cc(-c3ccc(Br)cc3)nc3[nH]nc(N)c23)cc1OC,Activity,[11],Active
same,IC50,[1],770 nM
same,inhibition,[2],75%
same,IC50,[3],260 nM
same,Activity,[12],Active
same,inhibition,[5],60%
same,IC50,Cholinesterase,690 nM
same,IC50,[7],20.3 µM
same,IC50,Acetylcholinesterase,160 nM
same,"viability at 72 h, 3.125 µM",[8],100%
same,selectivity ratio,human AChE,528
same,Activity,[9],Active
same,IC50 at 72 h,[10],84.5 µM
COc1ccc(-c2cc(-c3ccc(Br)cc3)c3c(N)n[nH]c3n2)cc1,IC50,Acetylcholinesterase,3720 nM
COc1ccc(-c2cc(-c3cc(OC)c(OC)c(OC)c3)c3c(N)n[nH]c3n2)cc1,IC50,Acetylcholinesterase,6010 nM
COc1ccc(-c2cc(-c3ccccc3)nc3[nH]nc(N)c23)cc1,IC50,Acetylcholinesterase,22400 nM
Nc1n[nH]c2nc(-c3ccccc3)cc(-c3ccccc3)c12,IC50,Acetylcholinesterase,5270 nM
CCCCCCCCCCCCCC(=O)N[C@@H](CCCCN)C(=O)N[C@@H](CCC(=O)O)C(=O)N[C@@H](C)C(=O)N1CCC[C@H]1C(=O)N1CCC[C@H]1C(=O)N[C@@H](CO)C(=O)N1CCC[C@H]1C(=O)N1CCC[C@H]1C(=O)N[C@@H](CCC(N)=O)C(=O)N[C@@H](COP(=O)(O)O)C(=O)N1CCC[C@H]1C(=O)O (Myristoyl-KEAPPSPPQ[pS]P-OH),IC50,[3],1000 nM
COc1ccc(-c2cc(-c3ccc(OC)cc3)c3c(N)n[nH]c3n2)cc1,IC50,Acetylcholinesterase,260 nM
